Assay results published in US20250127863A1, “ANTIMICROBIAL PEPTIDE FOR ONYCHOMYCOSIS” (CBMR SCIENTIFIC NANOSCIENCE B.V., priority 2019, published 2025).
Read-outs that look alike come from different tables or passages of the source. No end group written: not given here.

Columns and labels:
onychomycosis = format: in vivo, human; conditions: for no results observed, number of patients: 3-5 months treatment of the fungal nail
Method: The anti-fungal activity of the antimicrobial peptide hLF1-11 (GRRRRSVQWCA) [SEQ ID NO: 3] was tested in a clinical trial with human subjects who suffered from at least one nail apparently with onychomycosis.
In the clinical trial a total of 53 patients with different (severe) clinical signs of onychomycosis were included.

C. haemulonii = test: MIC90 growth inhibition; format: cell-based, Candida haemulonii; conditions: RPMI 1640 one-fourth strength
Method: (§1) The minimum inhibitory concentration (MIC) value is defined as the lowest sample concentration that inhibited growth. In the Examples, the MIC90 value is presented, which MIC90 values are determined according to established methods known to the person with the skills in the relevant art. Experiments; 1×10E5 CFU of various strains/ml were incubated for 24-48 h at 37° C. in 4× diluted medium of RPMI 1640 with the indicated concentrations of antimicrobial peptide hLF(1-11) [SEQ ID NO: 3]. As controls various strains cells were incubated for 24-48 h at 37° C. with no agent (antimicrobial peptide), and subsequently, growth of the microbial organism (e.g. yeast, bacterium) was monitored by using spectrophotometry with a spectrophotometer at 620 nm. […] ND=Not done. Representative single assay data are listed rather than a range, for clarity reasons and for ease of comparison of peptide efficacy. The MIC was calculated as the lowest antibiotic (antimicrobial peptide) concentration at which growth of the assessed yeast or bacterium (microbe) was inhibited (inhibitory concentration IC90).

C. lusitaniae CMC-1944 = test: MIC90 growth inhibition; format: cell-based, Candida lusitaniae; conditions: RPMI 1640 one-fourth strength
Method: as §1

C. parapsilosis CBS #57 = test: MIC90 growth inhibition; format: cell-based, Candida parapsilosis; conditions: RPMI 1640 one-fourth strength
Method: as §1

C. parapsilosis CBS #61 = test: MIC90 growth inhibition; format: cell-based, Candida parapsilosis; conditions: RPMI 1640 one-fourth strength
Method: as §1

C. parapsilosis CBS #7 = test: MIC90 growth inhibition; format: cell-based, Candida parapsilosis; conditions: RPMI 1640 one-fourth strength
Method: as §1

C. parapsilosis CBS-604 = test: MIC90 growth inhibition; format: cell-based, Candida parapsilosis; conditions: RPMI 1640 one-fourth strength
Method: as §1

C. parapsilosis CMC-2039 = test: MIC90 growth inhibition; format: cell-based, Candida parapsilosis; conditions: RPMI 1640 one-fourth strength
Method: as §1

C. tropicalis (LUMC) = test: MIC90 growth inhibition; format: cell-based, Candida tropicalis; conditions: RPMI 1640 one-fourth strength
Method: as §1

C. tropicalis CBS-94 = test: MIC90 growth inhibition; format: cell-based, Candida tropicalis; conditions: RPMI 1640 one-fourth strength
Method: as §1

C. tropicalis CMC-2041 = test: MIC90 growth inhibition; format: cell-based, Candida tropicalis; conditions: RPMI 1640 one-fourth strength
Method: as §1

C. tropicalis spp. = test: MIC90 growth inhibition; format: cell-based, Candida tropicalis; conditions: RPMI 1640 one-fourth strength
Method: as §1

Candida parapsilosis = format: cell-based
Method: as §1
For 3 patients A, B, C who were treated with the low concentration of antimicrobial peptide, and for which now clinical improvement was established, it was established that one patient presented with a positive culture (Candida parapsilosis). […] See also Tables 1-3 in Example 4, here below. […]

Candida albicans spp = test: MIC90 growth inhibition, organisms related to onychomycosis; format: cell-based; conditions: RPMI 1640 one-fourth strength
Method: as §1

Epidermophyton spp = test: as above; format: cell-based; conditions: RPMI 1640 one-fourth strength
Method: as §1

Hypercrealis spp = test: as above; format: cell-based; conditions: RPMI 1640 one-fourth strength
Method: as §1

Malassezia spp = test: as above; format: cell-based; conditions: RPMI 1640 one-fourth strength
Method: as §1

Microsporum spp = test: as above; format: cell-based; conditions: RPMI 1640 one-fourth strength
Method: as §1

[1] = tested on: Scopulariopsis breyicaulis; test: as above; format: cell-based; conditions: RPMI 1640 one-fourth strength
Method: as §1

[2] = tested on: Trichophyton interdigitalis; test: as above; format: cell-based; conditions: RPMI 1640 one-fourth strength
Method: as §1

Trichophyton spp = test: as above; format: cell-based; conditions: Trichophyton spp (Table 2); RPMI 1640 one-fourth strength
Method: as §1

GRRRRSVQWCA [hLF1-11, Gly Arg Arg Arg Arg Ser Val Gln Trp Cys Ala]
effect in patients D, E who had shown no effect at the high concentration (onychomycosis; 100 mg/L, after 3 months of treatment): positive effect
time after which improvement was observed for the patients (onychomycosis; High concentration solution (33.3 mg/L)): 3-6 months
positive effect of the treatment observed, number of patients (onychomycosis; Low concentrate (3.3 mg/L antimicrobial peptide) in aqueous acetic acid 0.01 volume %): 18 patients
time after which improvement was observed for the patients (onychomycosis; Low concentration solution (3.3 mg/L)): 4-7 months
positive effect of the treatment observed, number of patients (onychomycosis; high concentrate (33.3 mg/L antimicrobial peptide) in aqueous acetic acid 0.01 volume %): 22 patients
no results observed, number of patients (onychomycosis; high concentration): 2 patients
adverse side effects (patients' remarks) (onychomycosis; human, in vivo): No adverse side effects
no results observed, number of patients (onychomycosis; low concentration): 3 patients
positive effect of the nail treatment (onychomycosis; panel of 53 patients, aqueous solution comprising the antimicrobial peptide): 88.64%
patients with visual improvement of the nails (onychomycosis; patients in the clinical trial): more than 85%
positive result obtainable for all patients included in the clinical trial (onychomycosis; when the concentration of the antimicrobial peptide is 100 mg/L): 100%
Inhibitory concentration MIC (MIC90) (C. haemulonii): MIC = 25 μg/mL
Inhibitory concentration MIC (MIC90) (C. lusitaniae CMC-1944): MIC = 50 μg/mL
Inhibitory concentration MIC (MIC90) (C. parapsilosis CBS #57): MIC = 25-50 μg/mL
Inhibitory concentration MIC (MIC90) (C. parapsilosis CBS #61): MIC = 25-50 μg/mL
Inhibitory concentration MIC (MIC90) (C. parapsilosis CBS #7): MIC = 25-50 μg/mL
Inhibitory concentration MIC (MIC90) (C. parapsilosis CBS-604; C. parapsilosis CBS-604, second listing): MIC = 25 μg/ml
Inhibitory concentration MIC (MIC90) (C. parapsilosis CBS-604): MIC = 25 μg/mL
Inhibitory concentration MIC (MIC90) (C. parapsilosis CMC-2039; C. parapsilosis CMC-2039, second listing): MIC = 25 μg/ml
Inhibitory concentration MIC (MIC90) (C. parapsilosis CMC-2039): MIC = 25 μg/mL
Inhibitory concentration MIC (MIC90) (C. tropicalis (LUMC)): MIC = 25 μg/mL
Inhibitory concentration MIC (MIC90) (C. tropicalis (LUMC); second listing): MIC = 25 μg/ml
Inhibitory concentration MIC (MIC90) (C. tropicalis CBS-94; C. tropicalis CBS-94, second listing): MIC = 50 μg/ml
Inhibitory concentration MIC (MIC90) (C. tropicalis CBS-94): MIC = 50 μg/mL
Inhibitory concentration MIC (MIC90) (C. tropicalis CMC-2041; C. tropicalis CMC-2041, second listing): MIC = 50 μg/ml
Inhibitory concentration MIC (MIC90) (C. tropicalis CMC-2041): MIC = 50 μg/mL
Inhibitory concentration MIC (MIC90) (C. tropicalis spp.): MIC = 12.5-100 μg/mL
MIC90 value (Candida parapsilosis): 25 to 50 µg/mL
Inhibitory concentration MIC (MIC90) (Candida albicans spp): MIC = 25-50 μg/mL
Inhibitory concentration MIC (MIC90) (Epidermophyton spp): MIC = 25-50 μg/mL
Inhibitory concentration MIC (MIC90) (Hypercrealis spp): MIC = 25-50 μg/mL
Inhibitory concentration MIC (MIC90) (Malassezia spp): MIC = 12.5-50 μg/mL
Inhibitory concentration MIC (MIC90) (Microsporum spp): MIC = 25-50 μg/mL
Inhibitory concentration MIC (MIC90) [1]: MIC = 25-50 μg/mL
Inhibitory concentration MIC (MIC90) [2]: MIC = 25-50 μg/mL
Inhibitory concentration MIC (MIC90) (Trichophyton spp): MIC = 6.3-50 μg/ml
